# “Also recorded” adds a separate entry of the source.
# Tests used:
# GLAST [1] = assay: Immunocytochemistry of cultured astrocytes, GLAST staining; format: cell-based, rat; conditions: treated astrocytes
# Experimental: Primary astrocyte-enriched cultures were plated onto sterile 18 mm glass coverslips. After three washes in PBS, cells were permeabilized in 5% glacial acetic acid/95% ethanol (acid-alcohol) for 10 minutes. After washing, cells were incubated in a 1% normal goat serum for 30 minutes and then overnight at 4° C. in primary mouse anti-GFAP (1:500), rabbit anti-GLT-1 (1:500) or guinea pig anti-GLAST (1:2000). The following day, cells were washed and then incubated for 2 hours at room temperature with goat anti-mouse Alexa Fluor™-555 (Invitrogen Corporation, Carlsbad, Calif.) goat anti-guinea pig Alexa Fluor™-488 (Invitrogen Corporation, Carlsbad, Calif.) or goat anti-rabbit Alexa Fluor™-488 (Invitrogen Corporation, Carlsbad, Calif.; all at 1:250). Finally, cells were post-fixed in acid-alcohol and mounted with Vectashield (Vector Labs, Burlingame, Calif.) containing 4′,6-diamidino-2-phenylindole dihydrochloride hydrate (DAPI, Sigma Chemical Co., St Louis, Mo.), in order to visualize cell nuclei. The sections were examined with a fluorescence microscope, and images were captured with a Q-Fire cooled camera (Olympus, Melville, N.Y.). Confocal microscopy was also performed using a Zeiss LSM 510 Meta confocal microscope (Carl Zeiss AG, Oberkochen, Germany). Merged color images were processed using Adobe Photoshop 7.0 (Adobe Systems, San Jose, Calif.).
# GLAST [2] = assay: DsRed-GLAST-positive puncta in mouse spinal cord dorsal horn; format: in vivo
# Experimental: With these in vivo data collected, further experiments were performed in the transgenic mice to more clearly define the effects of propentofylline treatment on GLT-1 and GLAST in the spinal cord. As discussed above, following in vivo testing, mice were transcardially perfused and tissue was fixed with paraformaldehyde. Lumbar spinal cord sections were identified and post-fixed in paraformaldehyde. After one week in sucrose to prevent freeze fracture, spinal cord segments were frozen in dry ice, mounted and prepared with cryostat sectioning. Sections were then subjected to immunohistochemical analysis. […] In order to quantitate the relative number of eGFP (marker for GLT-1) or DsRed (marker for GLAST) puncta in each spinal cord dorsal horn, images using a fluorescence microscope were taken with a Q-Fire cooled camera (397 ms exposure). […] An observer blind to the treatment groups was used to count the relative number of GLT-1 or GLAST positive puncta in the ipsilateral (injured) dorsal horn versus the contralateral (non-injured) dorsal horn. […]
# As described previously with rats, mice were transcardially perfused with 0.1 M PBS (phosphate-buffered saline), pH 7.4, followed by 4%-paraformaldehyde in PBS on day 12 post-L5 spinal nerve transection. […] The sections were examined with a fluorescence microscope, and images were captured with a Q-Fire cooled camera. […]
# cAMP = cAMP levels in treated astrocytes, radio-receptor competition assay; format: cell-based, rat; conditions: days 3 and 7
# Experimental: Subsequently, cells were harvested and boiled for 3 minutes followed by high-speed (8,000×g) centrifugation. Fifty microliters of the resultant supernatant (total of 300 μl) was used to determine cAMP levels in the competition assay. cAMP levels were measured using a radio-receptor competition assay. In brief, [^3H] cAMP was used in competition for a cAMP binding protein (PKA) against known concentrations of non-radiolabeled cAMP, followed by determination of the unknowns. The reaction was allowed to proceed for 2 hours at 4° C. Charcoal was used to remove excess unbound cAMP. Finally, samples were counted in 5 ml Liquiscint™ (National Diagnostics, Atlanta, Ga.).
structure (smiles),measurement,setting,value
CCCn1cnc2c1c(=O)n(CCCCC(C)=O)c(=O)n2C [propentofylline],GLAST staining,GLAST [1],slightly increased GLAST staining
same,DsRed-GLAST-positive puncta in injured mice,"GLAST [2]; L5/propentofylline vs L5/saline group, day 12",significantly enhanced the number of DsRed-GLAST-positive puncta; also recorded: increased the levels back to that seen in the contralateral side
same,DsRed-GLAST expression in sham mice,GLAST [2]; sham/propentofylline group,unaffected
same,relative cAMP/db-cAMP levels,cAMP,did not lead to elevation in cAMP at 3 or 7 days; also recorded: did not enhance cAMP activity

# Reference: patent US20090227606A1, “Methods for Preventing or Treating Acute and Chronic Pain” (priority 2006, published 2009)
